# Read-outs that look alike come from different tables or passages of the source.
# Key:
# hVR1 receptors [1] = target: T1, hVR1 receptors (Homo sapiens, UniProt Q8NER1); assay: [3H] RTX binding assay, human VR1; set-up: expressed in transfected cells; host or cells: HEK293 (membrane preparation); conditions: inhibition of [3H] RTX binding, membranes of HEK293 cells transfected with human VR1
# Method: Compounds of the present invention were tested for their ability to inhibit the binding of [^3H] RTX to hVR1 receptors in a [^3H] RTX binding assay as previously described (Zhang, Sui-Po. Improved ligand binding assays for vanilloid receptors. PCT Int. Appl. (2002), 29 pp. CODEN: PIXXD2 WO 0233411 A1 20020425 AN 2002:315209; Grant, Elfrida R.; Dubin, Adrienne E.; Zhang, Sui-Po; Zivin, Robert A.; Zhong, Zhong Simultaneous intracellular calcium and sodium flux imaging in human vanilloid receptor 1 (VR1)-transfected human embryonic kidney cells: a method to resolve ionic dependence of VR1-mediated cell death. Journal of Pharmacology and Experimental Therapeutics (2002), 300(1), 9-17.)
# HEK293 cells were transfected with human VR1 vanilloid receptors and washed with Hank's Balanced Salt Solution, dissociated with cell dissociation buffer (Sigma), and then centrifuged at 1000×g for 5 min. Cell pellets were homogenized in cold 20 mM HEPES buffer, pH 7.4, containing 5.8 mM NaCl, 320 mM sucrose, 2 mM MgCl2, 0.75 CaCl2 and 5 mM KCl and centrifuged at 1000×g for 15 min. The resultant supernate was then centrifuged at 40000×g for 15 min. The pelleted membranes were kept in an −80° C. freezer.
# Approximately 120 μg protein/ml from membranes were incubated with indicated concentrations of [^3H] RTX in 0.5 ml of the HEPES buffer (pH 7.4) containing 0.25 mg/mL fatty acid-free bovine serum albumin at 37° C. for 60 min. The reaction mixture was then cooled to 4° C., 0.1 mg α1-acid glycoprotein added to each sample and incubated at 4° C. for 15 min. The samples were centrifuged at 18500×g for 15 min. The tip of the microcentrifuge tube containing the pellet was cut off. Bound radioactivity was quantified by scintillation counting. Non-specific binding was tested in the presence of 200 nM unlabeled RTX.
# [2] = test system: carrageenan paw-induced thermal hyperalgesia; assay: Carrageenan paw-induced thermal hyperalgesia; type: in vivo, rat; conditions: for ED50: Rattus norvegicus, po; for % Recovery: at 1 mg/ml
# Method: Each rat was placed on a heated surface (51° C.) in order to measure the time necessary to elicit a response, and an initial (baseline) response time to a thermal stimuli was recorded for each animal. A response is defined as any shaking, licking, or tucking of the treated paw or jumping. Animals not treated with a test compound respond in approximately 20 seconds. The maximal exposure time permitted is 60 seconds to prevent tissue damage. Rats were injected with an irritant (e.g., 1% carrageenan solution in 0.9% saline) subcutaneously into the sub-plantar tissue of the left hind paw to stimulate an acute inflammatory reaction.
# Two hours later, the response time of the animal to the thermal stimulus was evaluated and compared to the animal's baseline response time. This shorter response time was recorded as percent hyperalgesia (% H). A cut-off value for % H (usually 75%) was used during analysis to ensure that the animals were hyperalgesic. Animals were then dosed with test drug or vehicle.
# At some time(s) later (typically 45 and 90 minutes), the response time of the animal to the thermal stimulus was again evaluated. For each time point, a percent reversal of hyperalgesia (% R) was calculated using the following formula: % R=(Drug Latency−Carrageenan latency)/(Baseline latency−Carrageenan latency). ED50 values were calculated from % R obtained at several drug doses.
# Rat VR1 [3] = target: T2, Rat VR1 (Rattus norvegicus, UniProt O35433); assay: [3H]-RTX binding assay using rat tissue (spinal cord); set-up: Rat spinal cord was homogenized twice with a Polytron; from tissue; host or cells: rat spinal cord membranes; conditions: rat spinal cord membranes
# Method: Alternatively, a binding assay using rat tissue was used. Rat spinal cord was homogenized twice with a Polytron and centrifuged at 3000 rpm for 10 min in HEPES buffer containing 20 mM HEPES, pH 7.4, NaCl 5.8 mM, sucrose 320 mM, MgCl2 2 mM, CaCl2 0.75 mM and KCl 5 mM. The supernatant was then centrifuged at 18,000 rpm for 20 min. The pellet was saved in a tube and 10 ml assay buffer was added into the tube. The pellet and buffer were mixed with a Polytron. The assay contained 120 μg/ml membrane protein and 0.3-0.6 nM [^3H]-RTX (NEN, Boston) in a total volume of 0.5 ml HEPES buffer. Following-incubation for 60 min at 37 C, the samples were cooled down on ice, and 100 mg of α-acid glycoprotein were added into the samples. After centrifugation at 13,000 rpm for 15 min, the supernatant was aspirated and the tips of tubes were cut off and placed into 6 ml vials. Data were calculated according to the equation: % inhibition=(total binding−binding)*100/(total binding−non specific binding). Ki value values were calculated using a Prism program.
# hVR1 receptors [4] = target: T1, hVR1 receptors; assay: Broadly stimulated recombinant human VR1 functional assay (Ca2+ influx, FLIPR); type: cell-based; set-up: expressed in transfected cells; host or cells: HEK293
# Rat VR1 [5] = target: T2, Rat VR1; assay: Broadly stimulated recombinant rat VR1 functional assay (Ca2+ influx, FLIPR); type: cell-based; set-up: expressed in transfected cells; conditions: Ca2+ influx
# From the text: When nociceptors are exposed to tissue damaging stimuli, VR1 receptors are activated by a plethora of stimuli. In an effort to identify potent and efficacious antagonists at human and rat VR1 that were active under conditions simulating aspects of in vivo inflammation functional assays were developed using FLIPR to determine antagonist activity against endogenous activators and stimuli likely to be present in inflammation. Cell lines were constructed that stably expressed recombinant rat VR1 (rVR1/HEK293). Cells were exposed to various stimuli at their EC80, with the exception of the low pH and DTT stimuli.
# Phoshorylation by PKC. […] Cells were challenged with 300 nM PMA (˜EC80) after 3 min in the indicated antagonist.
# Anandamide. Anandamide is a brain-derived cannabinoid ligand that acts as a near full agonist at VR1 at low μM concentrations [Smart, 2000 #507].
# Reactive oxygen species: Disturbances in the regulatory activities of free radicals may play a role in inflammation [Winrow, 1993]. Reactive oxygen species (ROS) such as H2O2 are formed in inflamed joints.
# Reducing agents: The reducing agent DTT also directly activates VR1 [Vyklicky, 2002]. Cells were challenged with 5-10 mM DTT to stimulate VR1 after 3 min incubation in compound.
# Since many of our animal models were in rat, we cloned the rat VR1 and expressed it stably in HEK293 cells.
# [6] = target: T3, VR1 expressed endogenously on small rat dorsal root ganglion (DRG) neurons (Rattus norvegicus, UniProt O35433); assay: Electrophysiologic functional assay using dissociated rat DRG cells (whole cell patch clamp); type: cell-based; conditions: for inhibition of the response to 1 uM capsaicin: capsaicin-induced currents in rat DRG neurons; for % of the initial CAP response in presence of 1 uM CAP / % of the initial CAP response in presence of 10 uM CAP: initial response to 0.3 uM capsaicin
# T3 construct: VR1 expressed endogenously on small rat dorsal root ganglion (DRG) neurons; endogenous in cells; host or cells: dissociated DRG neurons from normal rats
# Method: Compounds 42, 95, 101, 105 and 106 were tested for their activity on VR1 expressed endogenously on small rat dorsal root ganglion (DRG) neurons. DRG neurons from normal rats were dissociated (see methods in Chaplan et al., 2003) and whole cell currents mediated by VR1 were recorded using the whole cell patch clamp technique. […] This was followed by application of 10 μM CAP in the presence of compound. […] The ability of 1 and 10 μM CAP to cause an increased current after exposure to a compound of the invention was compared to controls.
# [7] = 1.5 h, p.o., at 90 min, read-out: ED50
# [8] = reversal of hyperalgesia, read-out: CgHP ED50
# T1 sequence (Q8NER1 whole entry): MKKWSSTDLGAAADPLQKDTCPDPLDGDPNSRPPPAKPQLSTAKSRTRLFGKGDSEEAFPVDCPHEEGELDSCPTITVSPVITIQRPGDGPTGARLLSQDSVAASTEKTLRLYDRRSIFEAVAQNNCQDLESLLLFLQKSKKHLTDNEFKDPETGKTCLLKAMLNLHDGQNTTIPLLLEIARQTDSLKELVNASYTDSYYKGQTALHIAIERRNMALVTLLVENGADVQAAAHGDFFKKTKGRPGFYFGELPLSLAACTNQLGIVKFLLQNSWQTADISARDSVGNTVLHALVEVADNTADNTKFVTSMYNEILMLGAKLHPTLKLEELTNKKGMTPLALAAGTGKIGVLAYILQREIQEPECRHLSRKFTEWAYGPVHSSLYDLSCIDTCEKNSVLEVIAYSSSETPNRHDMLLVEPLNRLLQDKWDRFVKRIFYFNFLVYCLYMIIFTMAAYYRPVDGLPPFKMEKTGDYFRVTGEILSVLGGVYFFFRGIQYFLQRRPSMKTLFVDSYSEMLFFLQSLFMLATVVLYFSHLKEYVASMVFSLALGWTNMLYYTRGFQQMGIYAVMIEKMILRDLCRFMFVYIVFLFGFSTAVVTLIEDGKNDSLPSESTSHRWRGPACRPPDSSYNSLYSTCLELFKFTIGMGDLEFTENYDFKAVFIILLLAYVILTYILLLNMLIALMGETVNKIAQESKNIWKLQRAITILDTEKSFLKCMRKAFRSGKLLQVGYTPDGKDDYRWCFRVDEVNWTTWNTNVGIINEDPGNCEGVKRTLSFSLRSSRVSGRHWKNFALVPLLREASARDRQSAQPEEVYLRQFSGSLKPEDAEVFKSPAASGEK
# T3 sequence (O35433 whole entry): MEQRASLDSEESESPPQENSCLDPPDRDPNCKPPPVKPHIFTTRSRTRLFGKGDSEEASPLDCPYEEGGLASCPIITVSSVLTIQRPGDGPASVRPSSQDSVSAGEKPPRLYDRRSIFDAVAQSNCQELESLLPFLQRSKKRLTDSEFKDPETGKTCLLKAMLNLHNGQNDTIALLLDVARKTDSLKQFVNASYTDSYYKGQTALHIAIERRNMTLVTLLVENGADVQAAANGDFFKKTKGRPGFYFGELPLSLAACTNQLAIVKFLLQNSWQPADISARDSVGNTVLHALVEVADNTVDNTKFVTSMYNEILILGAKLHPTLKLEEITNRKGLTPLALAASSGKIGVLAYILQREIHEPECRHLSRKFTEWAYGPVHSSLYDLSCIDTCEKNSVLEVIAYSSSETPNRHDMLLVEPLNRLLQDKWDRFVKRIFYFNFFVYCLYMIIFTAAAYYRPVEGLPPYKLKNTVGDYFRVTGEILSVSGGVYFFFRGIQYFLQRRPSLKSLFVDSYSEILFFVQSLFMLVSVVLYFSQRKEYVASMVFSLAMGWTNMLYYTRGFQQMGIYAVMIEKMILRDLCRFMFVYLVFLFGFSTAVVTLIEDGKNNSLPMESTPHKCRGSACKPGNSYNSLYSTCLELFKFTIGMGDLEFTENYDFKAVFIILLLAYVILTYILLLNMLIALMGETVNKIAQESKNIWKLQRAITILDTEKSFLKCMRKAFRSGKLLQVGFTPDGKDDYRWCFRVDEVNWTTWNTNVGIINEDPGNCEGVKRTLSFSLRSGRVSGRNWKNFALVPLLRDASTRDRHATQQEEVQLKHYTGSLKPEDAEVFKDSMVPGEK
# T2 sequence (O35433 whole entry): as above
SMILES,Ki (hVR1 receptors [1]) [nM],Ki (Rat VR1 [3]) [nM],other results
O=C(Nc1cccc2cnccc12)NC1CCc2cc(F)ccc2C1Cc1ccc(C(F)(F)F)cc1 (stereo not drawn) [Compound 107],0.93,28.7,"ED50 [2, 7]: 0.92 mg/kg"
"Cc1cc2c(NC(=O)NC3CCc4cc(F)ccc4C3Cc3ccccc3)cccc2cn1 (single isomer, unassigned) [Compound 100]",5.25,781,–
"OO [Compound H2O2, H2O2, reference compound]",–,–,"EC80 for H2O2-induced Ca2+ flux (hVR1 receptors [4]; VR1/HEK cells, species not stated): 0.015 % H2O2"
COCOc1ccc(CNC(=S)NC2CCc3ccccc3C2Cc2cccnc2)cc1OC (stereo not drawn) [Compound 4],–,–,"ED50 [2, 8]: 0.804 mg/kg"
"O=C(Nc1cccc2c[n+]([O-])ccc12)NC1CCc2cc(F)ccc2C1Cc1cccc(C(F)(F)F)c1 (single isomer, unassigned) [Compound 121]",5.75,88.5,% Recovery ([2]; at 90 min): 80.1%
"O=C(Nc1cccc2cnccc12)NC1CCc2cc(F)ccc2C1Cc1cccc(C(F)(F)F)c1 (single isomer, unassigned) [Compound 119]",0.5,152,–
"O=C(Nc1cccc2c[n+]([O-])ccc12)NC1CCc2cc(F)ccc2C1Cc1cccc(C(F)(F)F)c1 (single isomer, unassigned) [Compound 120]",95.7,10000,% Recovery ([2]; at 90 min): 83.0%
"Cl.Cl.Cl.Cl.Cl.Cl.N.N.N.N.N.N.N.N.N.N.N.N.N.N.[O-2].[O-2].[Ru+3].[Ru+3].[Ru+4] [Ruthenium Red, ruthenium red, reference compound]",–,–,"IC50 (hVR1 receptors [4]; recombinant human VR1, stimulus 300 nM PMA, Ca2+ influx, read-out: IC50, PKC phosphorylation): 500 nM; IC50 (hVR1 receptors [4]; recombinant human VR1, stimulus low pH (pH 6.5), Ca2+ influx, read-out: IC50, Low pH): 500 nM; IC50 (Rat VR1 [5]; recombinant rat VR1, stimulus 300 nM PMA, read-out: IC50, PKC phosphorylation): 300 nM; IC50 (Rat VR1 [5]; recombinant rat VR1, stimulus anandamide 10 μM, read-out: IC50, Anandamide): 1860 nM"
"O=C(Nc1cccc2cnccc12)NC1CCc2cc(F)ccc2C1Cc1cccc(C(F)(F)F)c1 (single isomer, unassigned) [Compound 118]",2.16,169,–
C=CCC1c2ccccc2CCC1NC(=O)Nc1cccc2cnccc12 (stereo not drawn) [Compound 57],15.4,–,"ED50 [2, 8]: 0.354 mg/kg"
"Cc1cc2c(NC(=O)NC3CCc4cc(F)ccc4C3Cc3ccccc3)cccc2cn1 (single isomer, unassigned) [Compound 101]",1.12,53.1,inhibition of the response to 1 uM capsaicin [6]: dose dependent; % of the initial CAP response in presence of 1 uM CAP ([6]; compound concentration 0.03 uM): 14%; % of the initial CAP response in presence of 10 uM CAP ([6]; compound concentration 0.03 uM): 54%; % of the initial CAP response in presence of 1 uM CAP ([6]; compound concentration 0.1 uM): 0%; % of the initial CAP response in presence of 10 uM CAP ([6]; compound concentration 0.1 uM): 0%
O=C(Nc1cccc2cnccc12)NC1CCc2c(Cl)cccc2C1Cc1ccccc1 (stereo not drawn) [Compound 42],1.94,–,% of the initial CAP response in presence of 1 uM CAP ([6]; compound concentration 0.3 uM): 0%
"O=C(Nc1cccc2cnccc12)NC1CCc2ccccc2C12Cc1ccccc1C2 (stereo not drawn) [Compound 122, Spiro{indan-2,1′-(1′,2′,3′,4′-tetrahydronaphthalene)-2′-yl}-3-isoquinolin-5-yl-urea]",73,1700,–
"Oc1cc2c(cc1O)CN(C(=S)NCCc1ccc(Cl)cc1)CCC2 [Capsazepine, capsazepine, reference compound]",–,–,"IC50 (hVR1 receptors [4]; human recombinant receptor, FIG. 1, read-out: potency to inhibit Ca2+ activity induced by the panel of stimuli): 100 to 300 nM"
O=C(Nc1cccc2cnccc12)NC1CCc2cc(F)ccc2C1Cc1cccc(C(F)(F)F)c1 (racemic) [Compound 110],0.531,185,% Recovery ([2]; at 90 min): 64.3%
O=C(Nc1cccc2cnccc12)NC1CCc2cc(Cl)ccc2C1Cc1ccccc1 (stereo not drawn) [Compound 95],1.7,217,inhibition of the response to 1 uM capsaicin [6]: dose dependent; % of the initial CAP response in presence of 1 uM CAP ([6]; compound concentration 0.03 uM): 78%; % of the initial CAP response in presence of 10 uM CAP ([6]; compound concentration 0.03 uM): 1073%
COc1ccc2c(c1)CCC(NC(=O)Nc1cccc3cnccc13)C2Cc1ccsc1 (stereo not drawn) [Compound 89],–,1080,–
COc1ccc2c(c1)CC[C@@H](NC(=O)Nc1cccc3cnccc13)[C@H]2Cc1ccc(F)cc1F (relative stereo) [Compound 90],–,259,–
COc1ccc2c(c1)CCC(NC(=S)NCCc1ccc(Cl)cc1)C2Cc1ccccc1 (stereo not drawn) [Compound 17],–,–,"ED50 [2, 8]: 20 mg/kg"
O=C(Nc1cccc2cnccc12)N[C@@H]1CCc2cc(F)ccc2[C@@H]1Cc1ccoc1 (relative stereo) [Compound 88],15.5,1270,–
COc1ccc2c(c1)CC[C@@H](NC(=O)Nc1cccc3cnccc13)[C@@H]2Cc1ccc(F)cc1F (relative stereo) [Compound 91],–,1480,–
O=C(Nc1cccc2c[n+]([O-])ccc12)NC1CCc2cc(Cl)ccc2C1Cc1ccccc1 (stereo not drawn) [Compound 106],8.6,2840,"% of the initial CAP response in presence of 1 uM CAP ([6]; compound concentration 1 uM): 2%; % of the initial CAP response in presence of 10 uM CAP ([6]; compound concentration 1 uM): 11%; ED50 [2, 7]: 0.027 mg/kg"

# Reference: patent US7678812B2, “Aminotetralin-derived urea modulators of vanilloid VR1 receptor” (Janssen Pharmaceutica NV, priority 2002, dated 2010)
